Experimental data from article PMC10445283, “Boronate-Based Oxidant-Responsive Derivatives of Acetaminophen as Proinhibitors of Myeloperoxidase” (Chemical Research in Toxicology, 2023).
Several values for one entry are separate records, joined by “and”; a condition that tells them apart may be missing. Identical values can stand only once. Entries after “also recorded” stand apart in the source; their conditions may differ. Like-named read-outs stand apart in the source and are kept apart here. One block for each molecule: values may come before it.

Legend:
[1] = biological target: T1, MPO from human neutrophils (Homo sapiens, UniProt P05164); assay: Taurine N-chloramine/TMB assay of MPO-derived HOCl; assay type: biochemical; details: for IC50: read-out: IC50, inhibition of MPO chlorinating activity
T1 construct: MPO from human neutrophils was obtained from Athens Research and Technology (Athens, GA); purchased Athens Research and Technology (Athens, GA); host or cells: human neutrophils (natural source)
Protocol: (§1) The performance of AM and its derivatives in inhibition of the MPO chlorinating activity was evaluated using dose–response curves. The half maximal inhibitory concentration (IC50) values were determined on the basis of three independent measurements using a dose–response fitting mode implemented in OriginPro 2020 (OriginLab Corp.) software. […] MPO stock solution was prepared according to the supplier’s instruction by dissolving lyophilized powder of MPO in distilled water and was stored at 6 °C. The desired MPO activity was obtained by dilution of the stock solution with phosphate buffer (50 mM, pH 7.4) containing sodium chloride (0.1 M).
The diluted MPO solution was pipetted directly into the 96-well plate (1.45 μL). […] The prepared 96-well plate was incubated for 5 min, and the reaction was started by the addition of 110 μL per well of 20 μM H2O2 solution in water. The plate was incubated for another 5 min, and then 200 μL of the incubation mixtures was transferred to another 96-well plate prefilled with catalase solution (10 kU/mL, 2 μL per well) to remove unreacted hydrogen peroxide and to stop the reaction. Next, 50 μL per well of developing reagent composed of 2 mM TMB, 100 μM potassium iodide, and 0.32 M acetate buffer (pH 5.4) was added, and absorbance at 645 nm was measured by a Varioscan LUX (Thermo Fisher Scientific) plate reader controlled by SkanIt 6.0.2 software. The typical chlorinating activity of MPO during the inhibition experiments was 5 nM/s HOCl as determined using a CBA oxidation-based assay.[18] The concentration of H2O2 in the stock solution was determined spectrophotometrically at 240 nm using the molar extinction coefficient ε = 43.6 M^–1 cm^–1. The chemical structures of the TMB and CBA probes, along with their oxidation products, are presented in Supplementary Figure S5.
The MPO inhibitory activity of AM was compared with its two synthesized boronated derivatives (Figure 1). […] The resulting N-chloramine is then quantified in a reaction with N,N,N′,N′-tetramethylbenzidine catalyzed by potassium iodide.[20] […]

[2] = biological target: T1, MPO from human neutrophils; assay: NBD-TM oxidation assay of MPO-derived HOCl; assay type: biochemical; details: for IC50: NBD-TM 20 μM, MPO 0.1 nM, H2O2 10 μM, NaCl 0.1 M, pH 7.4, 5 min, read-out: IC50, inhibition of MPO chlorinating activity
Protocol: as §1
MPO-derived HOCl was monitored by an NBD-TM probe according to the previously described procedure (Supplementary Figure S5).[18] Briefly, to 96-well plates containing MPO, NBD-TM (40 μM), the studied compounds, phosphate buffer (100 mM, pH 7.4), and sodium chloride (0.2 M), 20 μM solution of hydrogen peroxide was added to start the reaction (mixing ratio 1:1 v/v). Then, the changes of fluorescence intensity were measured by Varioscan LUX using λex = 475 nm, λem = 575 nm, and slits width of 12 nm. This enabled the direct monitoring of fluorescent NBD-TSO formation.
The MPO inhibitory activity of AM was compared with its two synthesized boronated derivatives (Figure 1). […] In the taurine-based assay, HOCl oxidizes taurine to taurine N-chloramine. The resulting N-chloramine is then quantified in a reaction with N,N,N′,N′-tetramethylbenzidine catalyzed by potassium iodide.[20] In the case of the NBD-TM probe, in the presence of HOCl, the sulfur atom in the probe is oxidized to sulfoxide, producing a highly fluorescent NBD-TSO.[18]

MPO = biological target: T2, MPO (Homo sapiens, UniProt P05164); assay: MPO-dependent HOCl generation (summary values); assay type: biochemical
T2 construct: MPO from human neutrophils was obtained from Athens Research and Technology (Athens, GA); purchased Athens Research and Technology (Athens, GA); host or cells: human neutrophils (natural source)
Protocol: as §1

[3] = Pseudo-first-order kinetics of reaction with H2O2 (UPLC); assay type: physicochemical; details: pH 7.4, 20 mM phosphate buffer, 0.2–1 mM H2O2
Protocol: The rate constants for H2O2 and the studied boronic acids were determined directly under the pseudo-first-order conditions. Typically, the incubation mixtures contained boronic acid (20 μM), phosphate buffer (20 mM), CH3CN (2.5% v/v), and at least 10-fold excess of H2O2 (0.2–1 mM). The changes of analyte concentrations were followed by UPLC using a photodiode array detector (λmax = 250 ± 1.2 nm). On the basis of kinetic traces of AMBB and AAPBA decay (Supplementary Figure S6), the pseudo-first-order rate constants were determined. The second-order rate constants were calculated using the linear relationship between the determined pseudo-first-order rate constants and H2O2 concentrations.

[4] = Solubility in MPO assay mixture; assay type: physicochemical; details: above 0.3 mM in assay mixture, pH 7.4, 3% methanol
Protocol: For AMBB, in the range of 0 nM to 0.3 mM, no inhibition of HOCl production was observed (Figure 1A).

COX-2 = details: reference not given; read-out: IC50 for the inhibition of COX-2; cited from earlier work
[5] = design: method as in PMID 3395354; details: pH 7; cited from earlier work
[6] = Spontaneous conversion of AMB-OH into acetaminophen (UPLC); assay type: physicochemical
Protocol: Ultra-performance liquid chromatograph (UPLC) Acquity (Waters Ltd.) equipped with a photodiode array detector and combined with an LCT Premier XE (Waters Ltd.) mass spectrometer was used for the chromatographic separation and identification of AMBB and AAPBA oxidation products. Separation was performed on a reversed-phase C18 UPLC column (Waters Acquity UPLC BEH C18 […], 50 × 2.1 mm) equilibrated with a water/acetonitrile (CH3CN) (90/10 v/v) mobile phase containing 0.1% (v/v) trifluoroacetic acid (TFA). The analytes were separated at a flow rate of 0.3 mL/min. During the first 0.5 min of analysis, the composition of the mobile phase remained unchanged. […] The injection volume was 2 μL, the sample temperature was 20 °C, and the column temperature was 40 °C. The electrospray source was operated at positive ion mode using the following parameters: capillary voltage 2.8 kV, sample cone voltage 60 V, desolvation temp. 350 °C, source temp. 100 °C, desolvation gas flow 800 L/h, and cone gas flow 50 L/h. The MCP detector voltage was 2.5 kV.
Figure 4 Kinetics of the conversion of AMB-OH into acetaminophen (AM). AMB-OH was produced in situ by mixing 50 μM AMBB with 50 μM NaOCl in 20 mM phosphate buffer, pH 7.4. (A) UPLC peak areas of AMB-OH (open squares) and AM (open circles) as a function of incubation time. UPLC peak areas were integrated for chromatograms extracted at 250 ± 1.2 nm. (B) Scheme of the quinone methide moiety elimination by AMB-OH to form AM. TEXT PRINTED IN THE PICTURE: (A) AM: ^1k = (1.85 ± 0.01) × 10^-4 s^-1 | (A) AMB-OH: ^1k = (2.00 ± 0.01) × 10^-4 s^-1

[7] = cited from earlier work
[8] = Competition kinetics with FLBA: reaction with HOCl; assay type: physicochemical; details: pH 7.4, 50 mM phosphate buffer
Protocol: (§2) The rate constants of the reactions of AMBB and AAPBA with ONOO^– and HOCl were determined by a competition kinetic method using FLBA as a reference compound.[18],[21],[22] In this approach, two pseudo-first-order reactions were assumed, a reaction between FLBA and the selected oxidant, ONOO^– or HOCl (eq 1), and between the investigated acetaminophen derivative (R-B(OH)2) and the oxidant (eq 2). Typically, the set of samples containing FLBA (20 μM), phosphate buffer (50 mM, pH 7.4), and AMBB or AAPBA (0–160 μM) in Eppendorf tubes was prepared. A concentrated basic solution of HOCl or ONOO^– was then added to the samples and rapidly mixed. The resulting concentration of an appropriate oxidant was 1.5 μM. Next, the samples were transferred to a 96-well plate, and the fluorescence intensity of the formed fluorescein was measured. The fluorescence intensity was followed with a Varioscan LUX plate reader using λex = 490 nm, λem = 515 nm, and slit widths of 12 nm.

[9] = Competition kinetics with FLBA: reaction with ONOO–; assay type: physicochemical; details: pH 7.4, 50 mM phosphate buffer
Protocol: as §2

[10] = design: method as in PMID 34884784; details: previously reported; cited from earlier work
[11] = abstract summary, read-out: IC50 toward MPO-dependent HOCl generation

T2 sequence (P05164 279-745 limits assumed): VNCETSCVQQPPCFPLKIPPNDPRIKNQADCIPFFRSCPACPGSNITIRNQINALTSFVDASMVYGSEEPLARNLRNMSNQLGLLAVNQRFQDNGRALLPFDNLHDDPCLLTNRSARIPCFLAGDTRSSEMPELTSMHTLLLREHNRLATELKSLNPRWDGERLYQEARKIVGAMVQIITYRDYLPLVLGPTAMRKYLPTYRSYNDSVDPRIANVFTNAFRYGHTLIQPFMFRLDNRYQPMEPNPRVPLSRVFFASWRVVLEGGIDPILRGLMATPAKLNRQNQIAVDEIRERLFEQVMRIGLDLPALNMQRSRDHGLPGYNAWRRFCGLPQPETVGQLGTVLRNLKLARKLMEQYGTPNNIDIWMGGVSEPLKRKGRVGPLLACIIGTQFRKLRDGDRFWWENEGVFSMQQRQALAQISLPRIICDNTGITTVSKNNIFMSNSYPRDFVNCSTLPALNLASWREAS
T2 sequence (P05164 165-273 limits assumed): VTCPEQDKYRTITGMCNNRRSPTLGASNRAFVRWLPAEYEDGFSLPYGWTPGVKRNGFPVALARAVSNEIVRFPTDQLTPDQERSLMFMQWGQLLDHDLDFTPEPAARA
T1 sequence (P05164 279-745 limits assumed): as the sequence (P05164 279-745 limits assumed) above
T1 sequence (P05164 165-273 limits assumed): as the sequence (P05164 165-273 limits assumed) above

IC50 (MPO; [11]): > 300 µM
solubility [4]: limited solubility and precipitation
Structure (SMILES): CC(=O)Nc1ccc(OCc2ccc(B(O)O)cc2)cc1 [AMBB, (4-((4-Acetamidophenoxy)methyl)phenyl)-boronic Acid]
inhibition of HOCl production ([1]; in the presence of taurine, 0 nM to 0.3 mM compound): no inhibition; also recorded: not show any inhibitory activity; also recorded: failed to inhibit the chlorination cycle
inhibitory effect on HOCl production activity of MPO ([2]; no taurine, effect seen in the 0.1–0.3 mM range): shows the inhibitory effects; also recorded: exhibits inhibitory activity
second-order rate constant of reaction with H2O2 [3]: 1.67 M^–1 s^–1 and 1.67 ± 0.02 M^–1 s^–1

IC50 [1]: 153 ± 9 µM
IC50 [2]: 135 ± 9 µM
IC50 (MPO; [11]): 140 µM
IC50 (MPO; rounded value in discussion, read-out: IC50 for the inhibition of MPO): 150 µM
Structure (SMILES): CC(=O)Nc1ccc(O)cc1 [Acetaminophen, N-(4-hydroxyphenyl)acetamide]
electrode potential E°′ (AM-OH/AM-O·,H+ redox couple) [5]: 0.71 ± 0.01 V
first-order rate constant of AM build-up from AMB-OH ([6]; pH 7.4, 20 mM phosphate buffer): (1.85 ± 0.01) × 10^-4 s^-1

time to complete conversion into AM ([6]; pH 7.4, room temperature): 5 h
half-life ([6]; phosphate buffer, pH 7.4, pH 7.4, room temperature, read-out: half-life time (converted)): 1 h
Structure (SMILES): CC(=O)Nc1ccc(OCc2ccc(O)cc2)cc1 [AMB-OH, N-[4-(4-hydroxybenzyloxy)phenyl]acetamide]

Further lines, the molecule ahead of its results:

Structure (SMILES): O=c1[nH]c(=O)c2[nH]c(=O)[nH]c2[nH]1 [uric acid]
bimolecular rate constant of reaction with HOCl ([7]; pH 7): 3 × 10^5 M^–1 s^–1

Structure (SMILES): CC(=O)Nc1ccc(B(O)O)cc1 [AAPBA, 4-Acetamidophenylboronic Acid]
second-order rate constant of reaction with HOCl [8]: (1.72 ± 0.01) × 10^4 M^–1 s^–1
IC50 [1]: 420 ± 60 µM
IC50 [2]: 394 ± 2 µM
second-order rate constant of reaction with ONOO– [9]: (1.1 ± 0.3) × 10^6 M^–1 s^–1
second-order rate constant of reaction with H2O2 [3]: 1.9 ± 0.1 M^–1 s^–1

Structure (SMILES): O=C(O)c1ccccc1-c1c2ccc(=O)cc-2oc2cc(B(O)O)ccc12 [FLBA, reference compound]
rate constant of reaction with HOCl ([7]; previously reported): 1.11 × 10^4 M^–1 s^–1
rate constant of reaction with ONOO– [10]: 1.0 × 10^6 M^–1 s^–1
